Results reported in the NIST ThermoML archive (doi:10.1021/je700062x).
Numbers after ± are expanded uncertainties.

Assay: wn = mass fraction of the nth substance listed
Conditions: 101 kPa, Liquid, controlled-strain rheometer (ARES-RFS, TA Instruments)

Structure (SMILES)	viscosity (273.15 K, w1 = 0.05) [mPa·s]	viscosity (273.15 K, w1 = 0.1) [mPa·s]	viscosity (273.15 K, w1 = 0.2) [mPa·s]	viscosity (273.15 K, w1 = 0.3) [mPa·s]	viscosity (273.15 K, w1 = 0.4) [mPa·s]	viscosity (278.15 K, w1 = 0.05) [mPa·s]	viscosity (278.15 K, w1 = 0.1) [mPa·s]	viscosity (278.15 K, w1 = 0.2) [mPa·s]	viscosity (278.15 K, w1 = 0.3) [mPa·s]	viscosity (278.15 K, w1 = 0.4) [mPa·s]	viscosity (283.15 K, w1 = 0.05) [mPa·s]	viscosity (283.15 K, w1 = 0.1) [mPa·s]	viscosity (283.15 K, w1 = 0.2) [mPa·s]	viscosity (283.15 K, w1 = 0.3) [mPa·s]	viscosity (283.15 K, w1 = 0.4) [mPa·s]	viscosity (293.15 K, w1 = 0.05) [mPa·s]	viscosity (293.15 K, w1 = 0.1) [mPa·s]	viscosity (293.15 K, w1 = 0.2) [mPa·s]	viscosity (293.15 K, w1 = 0.3) [mPa·s]	viscosity (293.15 K, w1 = 0.4) [mPa·s]	also measured
O=C[C@H](O)[C@@H](O)[C@@H](O)[C@H](O)CO [(+)-galactose] + O	2.42 ± 0.26	2.779 ± 0.31	4.27 ± 0.43	6.93 ± 0.7	14.56 ± 1.5	2.077 ± 0.21	2.4 ± 0.28	3.37 ± 0.47	5.34 ± 0.54	11.17 ± 1.1	1.699 ± 0.17	2.107 ± 0.21	2.76 ± 0.45	4.57 ± 0.57	9 ± 0.91	1.397 ± 0.22	1.52 ± 0.35	2.1 ± 0.24	3.27 ± 0.66	6.11 ± 0.61	viscosity (268.15 K, w1 = 0.3): 8.95 ± 1.3 mPa·s; viscosity (268.15 K, w1 = 0.4): 18.84 ± 1.9 mPa·s; viscosity (273.15 K, w1 = 0.15): 3.325 ± 0.33 mPa·s; viscosity (278.15 K, w1 = 0.15): 2.77 ± 0.28 mPa·s; viscosity (283.15 K, w1 = 0.15): 2.469 ± 0.25 mPa·s; viscosity (293.15 K, w1 = 0.15): 1.77 ± 0.31 mPa·s
O=C(CO)[C@@H](O)[C@H](O)[C@H](O)CO [D-fructose] + O	2.345 ± 0.23	2.89 ± 0.33	4.2 ± 0.42	6.39 ± 0.78	14.02 ± 1.4	1.999 ± 0.2	2.44 ± 0.24	3.39 ± 0.52	5.5 ± 0.55	10.84 ± 1.1	1.681 ± 0.17	1.991 ± 0.2	2.859 ± 0.29	4.45 ± 0.45	8.07 ± 0.81	1.26 ± 0.28	1.43 ± 0.35	2.092 ± 0.21	3.07 ± 0.38	5.67 ± 0.57	viscosity (263.15 K, w1 = 0.7): 4270 ± 1100 mPa·s; viscosity (268.15 K, w1 = 0.3): 7.97 ± 0.8 mPa·s; viscosity (268.15 K, w1 = 0.4): 18.51 ± 1.9 mPa·s; viscosity (268.15 K, w1 = 0.5): 54.8 ± 5.7 mPa·s; viscosity (268.15 K, w1 = 0.6): 238 ± 27 mPa·s; viscosity (268.15 K, w1 = 0.7): 2446 ± 500 mPa·s; viscosity (273.15 K, w1 = 0.5): 35.06 ± 3.6 mPa·s; viscosity (273.15 K, w1 = 0.6): 148.7 ± 16 mPa·s; viscosity (273.15 K, w1 = 0.7): 1418 ± 230 mPa·s; viscosity (278.15 K, w1 = 0.5): 25.27 ± 2.6 mPa·s; viscosity (278.15 K, w1 = 0.6): 103.4 ± 11 mPa·s; viscosity (278.15 K, w1 = 0.7): 843 ± 120 mPa·s; viscosity (283.15 K, w1 = 0.5): 19.44 ± 2 mPa·s; viscosity (283.15 K, w1 = 0.6): 72 ± 7.5 mPa·s; viscosity (283.15 K, w1 = 0.7): 509.4 ± 63 mPa·s; viscosity (293.15 K, w1 = 0.5): 14.33 ± 1.4 mPa·s; viscosity (293.15 K, w1 = 0.6): 38.31 ± 3.9 mPa·s; viscosity (293.15 K, w1 = 0.7): 220.7 ± 24 mPa·s
O=C[C@H](O)[C@@H](O)[C@H](O)[C@H](O)CO [D-glucose] + O	2.39 ± 0.59	2.908 ± 0.31	4.3 ± 0.57	8.17 ± 0.82	15.28 ± 1.5	1.98 ± 0.4	2.47 ± 0.41	3.46 ± 0.45	5.94 ± 0.6	11.19 ± 1.9	1.76 ± 0.35	2.02 ± 0.33	2.93 ± 0.29	4.83 ± 0.48	9.63 ± 0.97	1.36 ± 0.33	1.58 ± 0.42	2.13 ± 0.26	3.46 ± 0.35	6.21 ± 0.62	viscosity (268.15 K, w1 = 0.5): 50.8 ± 5.2 mPa·s; viscosity (273.15 K, w1 = 0.5): 37.31 ± 3.8 mPa·s; viscosity (278.15 K, w1 = 0.5): 26.54 ± 2.7 mPa·s; viscosity (283.15 K, w1 = 0.5): 20.52 ± 2.1 mPa·s; viscosity (293.15 K, w1 = 0.5): 13.43 ± 1.4 mPa·s
OC[C@H]1O[C@@](CO)(O[C@H]2O[C@H](CO)[C@@H](O)[C@H](O)[C@H]2O)[C@@H](O)[C@@H]1O [D-sucrose] + O	2.45 ± 0.33	2.978 ± 0.52	4.42 ± 0.45	7.19 ± 0.74	19.81 ± 2	1.91 ± 0.45	2.472 ± 0.25	3.48 ± 0.35	5.99 ± 0.6	14.22 ± 1.4	1.72 ± 0.38	2.02 ± 0.33	3.01 ± 0.38	5.06 ± 0.51	11.31 ± 1.2	1.246 ± 0.19	1.48 ± 0.33	2.38 ± 0.42	3.46 ± 0.4	7.53 ± 0.75	viscosity (268.15 K, w1 = 0.4): 25.48 ± 2.6 mPa·s; viscosity (268.15 K, w1 = 0.5): 92.4 ± 11 mPa·s; viscosity (268.15 K, w1 = 0.6): 491.8 ± 50 mPa·s; viscosity (273.15 K, w1 = 0.5): 66.8 ± 6.8 mPa·s; viscosity (273.15 K, w1 = 0.6): 316.5 ± 32 mPa·s; viscosity (278.15 K, w1 = 0.5): 42.93 ± 4.4 mPa·s; viscosity (278.15 K, w1 = 0.6): 228.9 ± 50 mPa·s; viscosity (283.15 K, w1 = 0.5): 31.33 ± 3.2 mPa·s; viscosity (283.15 K, w1 = 0.6): 153.1 ± 16 mPa·s; viscosity (293.15 K, w1 = 0.5): 20.09 ± 2 mPa·s; viscosity (293.15 K, w1 = 0.6): 83.9 ± 8.5 mPa·s
